System: MRSA strain 2468
Experiment: SEM of treated cells (morphological changes)
Type: cell-based, Staphylococcus aureus
Conditions: 1× MIC, 18 h incubation, 20,000× magnification
Method: The treatment effect of NNS4-3 AMP on tested bacterial cells was investigated by observing morphological changes under SEM. S. aureus TISTR 517 and MRSA strain 2468 were precultured in MH broth for 18 h before being centrifuged to harvest the cell pellet. Cell pellets of both strains were washed with 0.85% sterile NaCl solution 3 times to remove exopolysaccharide. The washed cells were then dispersed in CAMHB to adjust cell turbidity to 0.1 OD at 625 nm. The prepared cells were diluted to 5 × 10^5 CFU/mL with CAMHB before being treated with NNS4-3 AMP. […] The sample for SEM micrography was prepared by fixing the bacterial sample in 2.5% glutaraldehyde in 0.1 M phosphate buffer pH 7.2 for 24 h before ethanol dehydration of the sample. The complete ethanol removal from the prepared sample was conducted by a critical point drying machine (Quorum Technologies Ltd., Lewes, East Sussex, UK).

SMILES: CC(C)CC(NC(=O)C(N)CCCCN)C(=O)NC(CC(C)C)C(=O)NC(CCCCN)C(=O)NC(CC(=O)O)C(=O)NC(CC(C)C)C(=O)NC(Cc1ccccc1)C(=O)NC(Cc1c[nH]cn1)C(=O)NC(CC(=O)O)C(=O)NC(CC(N)=O)C(=O)O (single isomer, unassigned) [NNS4-3 AMP]
- morphological changes under SEM: membrane disruption and pore formation

From publication PMC11350868, “A Novel Bacitracin-like Peptide from Mangrove-Isolated Bacillus paralicheniformis NNS4-3 against MRSA and Its Genomic Insights” (Antibiotics, 2024)
